Test results: patent US12624127B2, “Chitosan derivatives as antimicrobials and synergistic combinations thereof” (priority 2022, dated 2026)

Tests used:
[1] = test system: MDR A. baumannii (AB-1); assay: Neutropenic lung infection model in BALB/c mice; type: in vivo, Acinetobacter baumannii; conditions: rifampicin 10 mg/kg alone, 24 h
Method: Bacterial cultures of MDR . baumannii (AB-1) were prepared and used to infect 8-week-old female BALB/c mice. 10^8 CFU/mL of AB-1 (30 μL) was inhaled by the mouse to introduce the infection via the intranasal route. After 2 h of infection, a specific dosage of antibiotic (novobiocin or rifampicin, 10 mg/kg), 2,6-DAC (25 mg/kg) or the combination of antibiotic (novobiocin or rifampicin, 10 mg/kg) and 2,6-DAC (25 mg/kg) were administrated through the intranasal route for 2,6-DAC and through the intraperitoneal route for antibiotic. Mice euthanasian at indicated time points (24 h) was achieved by CO2 asphyxiation followed by cervical dislocation. For histopathological analysis, the lung was fixed in 10% neutral buffered formalin and embedded in paraffin. The paraffin-embedded sections were stained with H&E. The lung was recovered and counted for bacteria concentration.

[2] = test system: 3T3 cells
Method: In a 96-well plate, 3T3 cells were co-cultured for 24 h at 37° C. with polymer (100 μg/mL or 200 μg/mL) at initial cell density of 1×10^5 cells per well. At the end of the incubation period, the culture medium was removed, each well was washed with PBS followed by the addition of MTT solution, and the plate was incubated for 4 h at 37° C. The MTT medium was then removed, 100 μL of DMSO was added to each well, the plate was shaken at 100 rpm for 15 min and the absorbance at 570 nm was measured with plate reader (BIO-RAD Benchmark Plus, US).

[3] = set-up: species or system mice; conditions: mouse, in vivo, ip, 25 mg/kg
Method: The biomarkers were determined before treatment (Day 0), and Day 1 and Day 7 after administration. The biomarkers of Day 0 were the untreated controls. The animal experiments were carried out in accordance to the Code of Practice for the Institutional Care and Use of Animals for Scientific Purposes and were approved by the Ethics Committee of Ningbo University.

[4] = test system: rabbit erythrocyte suspension; assay: Hemolytic activity test; type: cell-based; conditions: 78 μg/mL, 1 h
Method: Fresh rabbit blood (5 mL) was washed three times with sterilized PBS and diluted to a final concentration of 5% v/v. A series concentration of 2,6-DAC and Gramicidin control were incubated with the prepared erythrocyte suspension for 1 h with shaking in a 96-well plate. The supernatant (80 μL) was aliquoted to a new plate after centrifugation at 1000 g for 10 min. The absorbance at 540 nm was recorded by the TECAN microplate reader. 0.1% Triton X-100 that can lyse red blood cells completely was used as the positive control (Op), and PBS was used as the negative control (On). The percentage of hemolysis was determined by the following equation: Hemolysis%=[(Ox−On)/(Op−On)]×100% Results and Discussion

[5] = test system: MDR A. baumannii (AB-1); assay: Intraperitoneal infection model in BALB/c mice; type: in vivo, Acinetobacter baumannii
Method: Bacterial cultures of MDR A. baumannii (AB-1) were prepared and used to infect 8-week-old female BALB/c mice. 10^6 CFU/mL of AB-1 (300 μL) was injected into the intraperitoneal cavity to introduce the infection. After 2 h of infection, specific dosage of antibiotic (novobiocin or rifampicin, 10 mg/kg), 2,6-DAC (25 mg/kg) or the combination of antibiotic (novobiocin or rifampicin, 10 mg/kg) and 2,6-DAC (25 mg/kg) were injected into the intraperitoneal cavity. PBS was used as a control. Mice euthanasian at the indicated time points (18 h) was achieved by CO2 asphyxiation followed by cervical dislocation. The intraperitoneal fluid, kidney, spleen and liver were recovered, and counted for bacteria concentration. For histopathological analysis, the kidney, spleen and liver were fixed in 10% neutral buffered formalin and embedded in paraffin. The paraffin-embedded sections were stained with H&E. The animal studies were carried out in accordance to protocol (A20029) approved by the NTU Institutional Animal Care and Use Committee (NTU-IACUC).

[6] = test system: A. baumannii AB-1; assay: Checkerboard synergy assay of 2,6-DAC with antibiotics; type: cell-based, Acinetobacter baumannii; conditions: A. baumannii AB-1
Method: (§1) 2,6-DAC was screened as a potentiating agent for synergistic combinations with antibiotics against both A. baumannii AB-1 and MRSA USA300. Before the synergy tests, the MIC values of antibiotics were tested against MDR A. baumannii AB-1 and MRSA USA300 by following the MIC determination protocol in Example 4. Then, the synergy of 2,6-DAC with antibiotics was determined.
(§2) Synergy was measured by time killing assay and checkerboard assay. Time killing assay was performed by following the protocol in Example 4. Checkerboard susceptibility assays to measure combinations of antimicrobials were performed in MHB at 37° C. as previously described (K. R. V. Thappeta et al., ACS Infect. Dis. 2020, 6, 1228-1237; and Z. Si et al., Angew. Chem. Int. Ed. 2020, 59, 6819-6826). The fractional inhibitory concentration (FIC) indices were calculated according to the following formula: […]

[7] = test system: A. baumannii; assay: MIC determination, broth micro dilution; type: cell-based, Acinetobacter baumannii; conditions: Acinetobacter baumannii; A. baumannii AB-1, antibiotic alone; read-out: MIC of antibiotic without 2,6-DAC
Method: (§3) MIC values were determined using a broth micro dilution method. Bacteria cells were grown overnight at 37° C. in MHB to a mid-log phase (OD600 between 0.4-0.5 for each organism) and diluted in MHB to 10^5 CFU/mL. […] 50 μL of the 1-5×10^5 CFU/mL bacterial cultures (final concentration) was aliquoted into 96-well microtiter plates and mixed with 50 μL of two-fold dilutions of the polymer or antibiotics and incubated for 16-18 h at 37° C. with shaking at 200 rpm.
as §1

[8] = test system: MRSA; assay: MIC determination, broth micro dilution; type: cell-based; conditions: Staphylococcus aureus; MRSA USA300; read-out: MIC of antibiotic alone / without 2,6-DAC
Method: as §3, §1

[9] = test system: A. baumannii AB-1; assay: Time killing assay; type: cell-based, Acinetobacter baumannii
Method: The plates were sealed and incubated at 37° C. with shaking at 200 rpm.
At 0, 0.5, 1, 2, 3, 5, and 24 h post-inoculation, each well was thoroughly mixed with a multi-channel pipette and 20 μL of sample was removed, serially diluted in sterile PBS, plated on LB agar plates, and incubated at 37° C. for 12 h. Colonies were counted to determine the CFU/mL at each time point.
as §2

[10] = test system: MRSA USA300; assay: Checkerboard synergy assay of 2,6-DAC with antibiotics; type: cell-based; conditions: antibiotic concentration in combination with 2,6-DAC
Method: as §1, §2

Compound: CO[C@H]1/C=C/O[C@@]2(C)Oc3c(C)c(O)c4c(O)c(c(/C=N/N5CCN(C)CC5)c(O)c4c3C2=O)NC(=O)/C(C)=C\C=C\[C@H](C)[C@H](O)[C@@H](C)[C@@H](O)[C@@H](C)[C@H](OC(C)=O)[C@@H]1C [Rifampicin]
- Reduction of lung bacteria, single agent [1]: around 1.6 log10

Compound: 2,6-Diamino Chitosan [Compound 5a]
- Biocompatibility (in words) [2]: good biocompatibility
- Change in biomarkers of kidney and liver functions (in words) [3]: did not cause a significant change

Compound: Gramicidin
- Hemolysis [4]: 100%

Compound: CO[C@@H]1[C@@H](OC(N)=O)[C@@H](O)[C@H](Oc2ccc3c(O)c(NC(=O)c4ccc(O)c(CC=C(C)C)c4)c(=O)oc3c2C)OC1(C)C [Novobiocin]
- Histology of liver, spleen and kidney, combination treatment (in words) ([5]; 2,6-DAC + novobiocin, H&E): significantly alleviated these tissue abnormalities
- Histology of liver, spleen and kidney, individual treatment (in words) ([5]; alone, H&E, vs infection control): did not improve the tissue appearance
- Efficacy of single agent in intraperitoneal fluid and distal organs (in words) ([5]; alone: 2,6-DAC 25 mg/kg or novobiocin 10 mg/kg, i.p., 18 h): ineffective
- Synergy with 2,6-DAC (in words) [6]: synergistic activity
- MIC, antibiotic in combination ([6]; antibiotic concentration in combination with 2,6-DAC (8 μg/mL)): 0.5 µg/mL
- MIC [7]: 8 µg/mL
- MIC [8]: 0.125 µg/mL
- Bacteria killing, combination with 2,6-DAC ([9]; 2,6-DAC 0.25×MIC + novobiocin 0.125 to 0.25×MIC): 4 log10
- Killing of bacteria by single agent (in words) ([9]; sub-inhibitory concentration, alone, 24 h): no killing of bacteria
- MIC, antibiotic in combination [10]: 0.03125 µg/mL
